Test results: EP4678638A1, “NEW E3 UBIQUITIN LIGASE LIGAND, PROTEIN DEGRADATION AGENT AND USE THEREOF” (priority 2023, dated 2024)

Biological target: T1, human Cereblon WT GST-tagged protein (Homo sapiens, UniProt Q96SW2)
T1 construct: purchased CISBIO 64BDCRBNPEH
Test: CRBN binding, HTRF (CEREBLON BINDING kit)
Settings: HTRF; for inhibition at 0.5 µM: read-out: Inhibition rate (%) at 0.5µM; for inhibition at 2 µM: read-out: Inhibition rate (%) at 2 µM
Experimental: The CEREBLON BINDING kits (specification: 10,000 tests; product number: Catalog # 64BDCRBNPEH; CISBIO company) was used to determine the CRBN binding ability of the compounds to be tested through a HTRF method (homogeneous time-resolved fluorescence). The specific methods are as follows: • 1. […] Then, 2.5 µL of human Cereblon WT GST-tagged protein solution was added to each well. Finally, 5 µL of the thoroughly mixed Thalidomide-Re reagent and GST Eu antibody working solution were added to each of the aforementioned wells. […] The blank control wells were sequentially added with 2.5 µL of diluent #9 (1X) solution, 2.5 µL of binding buffer, and 5 µL of thoroughly mixed Thalidomide-Re reagent and GST Eu antibody working solution. • 4. After sealing and incubating the solutions in the aforementioned wells at room temperature for 3 hours, the […] at emission wavelengths of 620 nm and 665 nm were detected by the HTRF method using a Spark microplate reader (V3.1 SP1).

[1] = Table II-2, CRBN binding screening, at 0.5µM
[2] = Table II-2, CRBN binding screening, at 2 µM

T1 sequence (Q96SW2 whole entry): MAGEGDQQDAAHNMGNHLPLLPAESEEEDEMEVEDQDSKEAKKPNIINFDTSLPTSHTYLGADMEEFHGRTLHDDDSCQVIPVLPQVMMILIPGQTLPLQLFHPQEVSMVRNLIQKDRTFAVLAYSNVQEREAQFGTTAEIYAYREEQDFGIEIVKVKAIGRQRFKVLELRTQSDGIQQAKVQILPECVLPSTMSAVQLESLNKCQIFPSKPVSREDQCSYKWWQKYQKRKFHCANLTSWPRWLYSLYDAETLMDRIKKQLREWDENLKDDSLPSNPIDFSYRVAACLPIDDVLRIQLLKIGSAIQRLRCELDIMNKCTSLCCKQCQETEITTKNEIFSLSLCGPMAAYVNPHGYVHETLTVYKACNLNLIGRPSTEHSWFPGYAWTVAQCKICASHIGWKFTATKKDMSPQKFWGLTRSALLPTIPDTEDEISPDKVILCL

Row | Compound | Inhibition rate (%) at 0.5µM [1] | Inhibition rate (%) at 2 µM [2] | inhibition at 0.5 µM [1] | inhibition at 2 µM [2] | IC50 (Table II-1, CRBN binding)
1 | CC1(C)CCC(c2ccc(Cl)cc2)=C(CN2CCN(c3ccc(C(=O)NS(=O)(=O)c4ccc(N[C@H](CCN5CC6CCC5CN6Cc5ccc(C6CCC(=O)NC6=O)cc5)CSc5ccccc5)c(S(=O)(=O)C(F)(F)F)c4)cc3)CC2)C1 (stereo partly drawn) [GT-07878, 4-(4-((4'-chloro-4,4-dimethyl-3,4,5,6-tetrahydro-[1,1'-biphenyl]-2-yl)methyl)piperazin-1-yl)-N-((4-(((2R)-4-(5-(4-(2,6-dioxopiperidin-3-yl)benzyl)-2,5-diazabicyclo[2.2.2]octan-2-yl)-1-(phenylthio)butan-2-yl)amino)-3-((trifluoromethyl)sulfonyl)phenyl)sulfonyl)benzamide] | a3 (30% < a3 ≤ 40%) | a5 (53% < a5 ≤ 60%) |  |  | 
2 | CC(=O)c1c(C)c2cnc(Nc3ccc(N4CCN(Cc5cncc(N6CCC(=O)NC6=O)c5)CC4)cn3)nc2n(C2CCCC2)c1=O [GT-07482, 1-(5-((4-(6-((6-acetyl-8-cyclopentyl-5-methyl-7-oxo-7,8-dihydropyrido[2,3-d]pyrimidin-2-yl)amino)pyridin-3-yl)piperazin-1-yl)methyl)pyridin-3-yl)dihydropyrimidine-2,4(1H,3H)-dione] |  |  | 20 to 30% | 80 to 100% | 
3 | CC(C)(O)c1cc2nn(C3CCN(Cc4cncc(N5CCC(=O)NC5=O)c4)CC3)cc2cc1NC(=O)c1cccc(C(F)(F)F)n1 [GT-07540, N-(2-(1-((5-(2,4-dioxotetrahydropyrimidin-1(2H)-yl)pyridin-3-yl)methyl)piperidin-4-yl)-6-(2-hydroxypropan-2-yl)-2H-indazol-5-yl)-6-(trifluoromethyl)picolinamide] |  |  | 30 to 40% | 53 to 60% | 
4 | CC(C)(O)c1cc2nc(C3CCN(Cc4cc(C5CCC(=O)NC5=O)cnc4F)CC3)oc2cc1NC(=O)c1cccc(C(F)(F)F)n1 (stereo not shown) [GT-07629, N-(2-(1-((5-(2,6-dioxopiperidin-3-yl)-2-fluoropyridin-3-yl)methyl)piperidin-4-yl)-5-(2-hydroxypropan-2-yl)benzo[d]oxazol-6-yl)-6-(trifluoromethyl)picolinamide] |  |  | 60 to 80% | 80 to 100% | 
5 | COc1cc(N2CCC(N3CCN(Cc4cc(N5CCC(=O)NC5=O)cnc4F)CC3)CC2)ccc1Nc1ncc(Cl)c(Nc2ccccc2P(C)(C)=O)n1 [GT-07759, 1-(5-((4-(1-(4-((5-chloro-4-((2-(dimethylphosphoryl)phenyl)amino)pyrimidin-2-yl)amino)-3-methoxyphenyl)piperidin-4-yl)piperazin-1-yl)methyl)-6-fluoropyridin-3-yl)dihydropyrimidine-2,4(1H,3H)-dione] |  |  | 30 to 40% | 53 to 60% | 
6 | O=C1CCN(c2cccc(CN3CCN(C4CCN(c5ccc([C@@H]6c7ccc(O)cc7CC[C@@H]6c6ccccc6)cc5)CC4)CC3)c2)C(=O)N1 [GT-04685, 1-(3-((4-(1-(4-((1R,2S)-6-hydroxy-2-phenyl-1,2,3,4-tetrahydronaphthalen-1-yl)phenyl)piperidin-4-yl)piperazin-1-yl)methyl)phenyl)dihydropyr imidine-2,4(1H,3H)-dione] |  |  |  |  | 500 to 1000 nM
7 | CC1(C)CCC(c2ccc(Cl)cc2)=C(CN2CCN(c3ccc(C(=O)NS(=O)(=O)c4ccc(N[C@H](CCN5CC6CCC5CN6Cc5cccc(NC6CCC(=O)NC6=O)c5)CSc5ccccc5)c(S(=O)(=O)C(F)(F)F)c4)cc3)CC2)C1 (stereo partly drawn) [GT-07882, 4-(4-((4'-chloro-4,4-dimethyl-3,4,5,6-tetrahydro-[1,1'-biphenyl]-2-yl)methyl)piperazin-1-yl)-N-((4-(((2R)-4-(5-(3-((2,6-dioxopiperidin-3-yl)amino)benzyl)-2,5-diazabicyclo[2.2.2]octan-2-yl)-1-(phenylthio)butan-2-yl)amino)-3-((trifluoromethyl)sulfonyl)phenyl)sulfonyl)benzamide] |  |  | 30 to 40% | 30 to 40% | 
